Read-outs that look alike come from different tables or passages of the source.
What was measured:
HBV = assay: anti HBV activity, HepG2.117 cell line, intracellular HBV DNA by realtime PCR; format: cell-based
Procedure, shortened: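 Readout was intracellular HBV DNA by real-time PCR (HBV-specific primers and probe) after 3 days of compound exposure. Serial dilutions were tested in duplicate on HepG2.117 cells, a stable inducible HBV producer in which replication is switched on when doxycycline is absent.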

[1] = Cytotoxicity in HepG2 cells, Resazurin assay; settings: human, HepG2 cells, TOX-HepG2-4 d CC50 (μM), HepG2 cells incubated for 4 days, viability by Resazurin assay
[2] = HepG2.117 cell line (Tet-off), 3 days of treatment, intracellular HBV DNA quantified by realtime PCR, read-out: HBV-AVE-HepG2.117 EC50
[3] = Hepatitis B virus, HepG2.117, 72 h, HepG2.117 cell line (Tet-off), 3 days of treatment, intracellular HBV DNA quantified by realtime PCR, read-out: HBV-AVE-HepG2.117 EC50

SMILES | EC50 (HBV; [2]) | CC50 at 4 days [1] | EC50 (HBV; [3]) | EC50 (HBV; Hepatitis B virus, HepG2.117, 72 h, read-out: HBV-AVE-HepG2.117 EC50 (μM))
Cc1cc(CC2(C)COc3c(cn(C)c3C(=O)Nc3ccc(F)c(F)c3)S(=O)(=O)N2)n(C)n1 (single isomer, unassigned) [Compound 175a, N-(3,4-difluorophenyl)-3-[(2,5-dimethylpyrazol-3-yl)methyl]-3,7-dimethyl-1,1-dioxo-2,4-dihydropyrrolo[3,4-b][1,4,5]oxathiazepine-6-carboxamide] | 0.021 µM | > 22.9 µM |  | 
C[C@H](O)[C@H]1CCc2c(cn(C)c2C(=O)Nc2ccnc(Br)c2)S(=O)(=O)N1 [Compound 111, (3R)—N-(2-bromo-4-pyridyl)-3-[(1S)-1-hydroxyethyl]-7-methyl-1,1-dioxo-2,3,4,5-tetrahydropyrrolo[3,4-f]thiazepine-6-carboxamide] |  | > 25 µM | 0.089 µM | 
Cn1cc2c(c1C(=O)Nc1ccc(F)c(F)c1)CCC1(COC1)NS2(=O)=O [Compound 131, N-(3,4-difluorophenyl)-7-methyl-1,1-dioxo-spiro[4,5-dihydro-2H-pyrrolo[3,4-f]thiazepine-3,3′-oxetane]-6-carboxamide] |  | > 25 µM | 0.023 µM | 
CC(C)[C@@H]1COc2c(cn(C)c2C(=O)Nc2ccc(F)c(F)c2)S(=O)(=O)N1 [Compound 27, (3R)—N-(3,4-difluorophenyl)-3-isopropyl-7-methyl-1,1-dioxo-3,4-dihydro-2H-pyrrolo[3,4-b][1,4,5]oxathiazepine-6-carboxamide] |  | > 25 µM | 0.11 µM | 
CC#CCC1COc2c(cn(C)c2C(=O)Nc2ccc(F)c(F)c2)S(=O)(=O)N1 (stereo not shown) [Compound 205, 3-but-2-ynyl-N-(3,4-difluorophenyl)-7-methyl-1,1-dioxo-3,4-dihydro-2H-pyrrolo[3,4-b][1,4,5]oxathiazepine-6-carboxamide] |  | > 25 µM |  | 0.05 µM
Cn1cc2c(c1C(=O)Nc1ccc(F)c(F)c1)OCC1(CCN(Cc3ccccc3)C1)NS2(=O)=O (stereo not shown) [Compound 216, 1′-benzyl-N-(3,4-difluorophenyl)-7-methyl-1,1-dioxo-spiro[2,4-dihydropyrrolo[3,4-b][1,4,5]oxathiazepine-3,3′-pyrrolidine]-6-carboxamide] |  | > 25 µM | 0.034 µM | 
CCC1(C)COc2c(cn(C)c2C(=O)Nc2ccc(F)c(F)c2)S(=O)(=O)N1 (single isomer, unassigned) [Compound 134a, N-(3,4-difluorophenyl)-3-ethyl-3,7-dimethyl-1,1-dioxo-2,4-dihydropyrrolo[3,4-b][1,4,5]oxathiazepine-6-carboxamide] |  | > 25 µM | 0.008 µM | 
C[C@H]1NS(=O)(=O)c2cn(C)c(C(=O)Nc3ccc(F)c(F)c3)c2O[C@@H]1C [compound 231] |  | > 25 µM | > 0.5 µM | 
CC(NCC(F)(F)F)C1COc2c(cn(C)c2C(=O)Nc2ccc(F)c(C#N)c2)S(=O)(=O)N1 (single isomer, unassigned) [Compound 161a, N-(3-cyano-4-fluoro-phenyl)-7-methyl-1,1-dioxo-3-[1-(2,2,2-trifluoroethylamino)ethyl]-3,4-dihydro-2H-pyrrolo[3,4-b][1,4,5]oxathiazepine-6-carboxamide] | 0.049 µM | > 25 µM |  | 
CC1C/C=C\c2c(cn(C)c2C(=O)Nc2ccc(F)c(F)c2)S(=O)(=O)N1 (single isomer, unassigned) [Compound 15a, (5Z)—N-(3,4-difluorophenyl)-3,8-dimethyl-1,1-dioxo-3,4-dihydro-2H-pyrrolo[3,4-g]thiazocine-7-carboxamide] | 0.078 µM | > 25 µM |  | 
Cn1cc2c(c1C(=O)Nc1ccc(F)c(F)c1)OCC(C)(c1ncccn1)NS2(=O)=O (racemic) [Compound 153, N-(3,4-difluorophenyl)-3,7-dimethyl-1,1-dioxo-3-pyrimidin-2-yl-2,4-dihydropyrrolo[3,4-b][1,4,5]oxathiazepine-6-carboxamide] |  | > 25 µM | 0.068 µM | 
Cn1cc2c(c1C(=O)Nc1ccc(F)c(C#N)c1)OCCNS2(=O)=O [Compound 91, N-(3-cyano-4-fluoro-phenyl)-7-methyl-1,1-dioxo-3,4-dihydro-2H-pyrrolo[3,4-b][1,4,5]oxathiazepine-6-carboxamide] |  | > 25 µM | 0.13 µM | 
C[C@H]1CCc2c(cn(C)c2C(=O)Nc2ccc(F)c(C(F)F)c2)S(=O)(=O)N1 (single isomer, unassigned) [Compound 55, (3*S)—N-[3-(difluoromethyl)-4-fluoro-phenyl]-3,7-dimethyl-1,1-dioxo-2,3,4,5-tetrahydropyrrolo[3,4-f]thiazepine-6-carboxamide] |  | > 25 µM | 0.003 µM | 
Cn1cc2c(c1C(=O)Nc1ccnc(C(F)F)c1)OCC(C)(CO)NS2(=O)=O (single isomer, unassigned) [Compound 215a, N-[2-(difluoromethyl)-4-pyridyl]-3-(hydroxymethyl)-3,7-dimethyl-1,1-dioxo-2,4-dihydropyrrolo[3,4-b][1,4,5]oxathiazepine-6-carboxamide] | 0.062 µM | > 25 µM |  | 
C[C@H]1C=Cc2c(cn(C)c2C(=O)Nc2ccc(F)c(C(F)F)c2)S(=O)(=O)N1 (single isomer, unassigned) [Compound 51, (3*S)—N-[3-(difluoromethyl)-4-fluoro-phenyl]-3,7-dimethyl-1,1-dioxo-2,3-dihydropyrrolo[3,4-f]thiazepine-6-carboxamide] |  | > 25 µM | < 0.002 µM | 
COCC1(CO)CCc2c(cn(C)c2C(=O)Nc2ccc(F)c(F)c2)S(=O)(=O)N1 (stereo not shown) [Compound 202, N-(3,4-difluorophenyl)-3-(hydroxymethyl)-3-(methoxymethyl)-7-methyl-1,1-dioxo-4,5-dihydro-2H-pyrrolo[3,4-f]thiazepine-6-carboxamide] |  | > 25 µM | 0.025 µM | 
Cn1cc2c(c1C(=O)Nc1ccc(F)c(C(F)F)c1)OC[C@H](C(O)C1CC1)NS2(=O)=O (stereo partly drawn) [Compound 115a, (3R)-3-[cyclopropyl(hydroxy)methyl]-N-[3-(difluoromethyl)-4-fluoro-phenyl]-7-methyl-1,1-dioxo-3,4-dihydro-2H-pyrrolo[3,4-b][1,4,5]oxathiazepine-6-carboxamide] |  | > 25 µM | 0.008 µM | 
Cc1cc(CC2(C)COc3c(cn(C)c3C(=O)Nc3ccnc(C(F)F)c3)S(=O)(=O)N2)no1 (single isomer, unassigned) [Compound 209a, N-[2-(difluoromethyl)-4-pyridyl]-3,7-dimethyl-3-[(5-methylisoxazol-3-yl)methyl]-1,1-dioxo-2,4-dihydropyrrolo[3,4-b][1,4,5]oxathiazepine-6-carboxamide] | 0.06 µM | > 25 µM |  | 
C[C@H](O)[C@H]1C=Cc2c(cn(C)c2C(=O)Nc2ccnc(Br)c2)S(=O)(=O)N1 [Compound 97, (3R)—N-(2-bromo-4-pyridyl)-3-[(1S)-1-hydroxyethyl]-7-methyl-1,1-dioxo-2,3-dihydropyrrolo[3,4-f]thiazepine-6-carboxamide] |  | > 25 µM | 0.055 µM | 
C[C@H]1CCc2c(cn(C)c2C(=O)Nc2ccc(F)c(Cl)c2F)S(=O)(=O)N1 (single isomer, unassigned) [Compound 54, (3*S)—N-(3-chloro-2,4-difluoro-phenyl)-3,7-dimethyl-1,1-dioxo-2,3,4,5-tetrahydropyrrolo[3,4-f]thiazepine-6-carboxamide] |  | > 25 µM | 0.004 µM | 
CCC(O)[C@H]1COc2c(cn(C)c2C(=O)Nc2ccc(F)c(F)c2)S(=O)(=O)N1 (stereo partly drawn) [Compound 130a, (3R)—N-(3,4-difluorophenyl)-3-(1-hydroxypropyl)-7-methyl-1,1-dioxo-3,4-dihydro-2H-pyrrolo[3,4-b][1,4,5]oxathiazepine-6-carboxamide] |  | > 25 µM | 0.018 µM | 
Cn1cc2c(c1C(=O)Nc1ccc(F)c(F)c1)OC[C@H](C(O)C1CC1)NS2(=O)=O (stereo partly drawn) [Compound 105a, (3R)-3-[cyclopropyl(hydroxy)methyl]-N-(3,4-difluorophenyl)-7-methyl-1,1-dioxo-3,4-dihydro-2H-pyrrolo[3,4-b][1,4,5]oxathiazepine-6-carboxamide] |  | > 25 µM | 0.007 µM | 
Cc1cccc(CC2(C)COc3c(cn(C)c3C(=O)Nc3ccc(F)c(F)c3)S(=O)(=O)N2)n1 (single isomer, unassigned) [Compound 172a, N-(3,4-difluorophenyl)-3,7-dimethyl-3-[(6-methyl-2-pyridyl)methyl]-1,1-dioxo-2,4-dihydropyrrolo[3,4-b][1,4,5]oxathiazepine-6-carboxamide] |  | > 25 µM | 0.072 µM | 
CC(C)C(O)C1COc2c(cn(C)c2C(=O)Nc2ccc(F)c(F)c2)S(=O)(=O)N1 (single isomer, unassigned) [Compound 114a, N-(3,4-difluorophenyl)-3-(1-hydroxy-2-methyl-propyl)-7-methyl-1,1-dioxo-3,4-dihydro-2H-pyrrolo[3,4-b][1,4,5]oxathiazepine-6-carboxamide] | 0.022 µM | > 25 µM |  | 
CC(C)[C@@H]1Oc2c(cn(C)c2C(=O)Nc2ccc(F)c(F)c2)S(=O)(=O)N[C@H]1CO [compound 241] |  | > 25 µM | > 0.25 µM | 
CC1C=Cc2c(cn(C)c2C(=O)Nc2ccc(F)c(F)c2)S(=O)(=O)N1 (single isomer, unassigned) [Compound 7a, N-(3,4-difluorophenyl)-3,7-dimethyl-1,1-dioxo-2,3-dihydropyrrolo-[3,4-f]thiazepine-6-carboxamide] | 0.13 µM | > 25 µM |  | 

Reference: patent US10875876B2, “Cyclized sulfamoylarylamide derivatives and the use thereof as medicaments for the treatment of hepatitis B” (priority 2015, dated 2020)
